According to patent US12227501B2, “3-amino-2-[2-(acylamino)pyridin-4-yl]-1,5,6,7-tetrahydro-4h-pyrrolo[3,2-c]pyridin-4-one as CSNK1 inhibitors” (Bayer Aktiengesellschaft, priority 2019, dated 2025):
Values joined by “and” are separate entries in the source; they are usually repeats but may differ in a detail not shown here. Equal entries are not always repeated. Where two headings read alike, the source gives them in different places.

What was measured:
Format in all cases: biochemical
human CSNK1A1 [1] = target: T1, human CSNK1A1 (Homo sapiens (Human), UniProt P48729); assay: CSNK1A1 Assay 2 (ADP-Glo, 1 μM ATP); details: substrate biotin-Ahx-KRRRAL-pS-VASLPGL, read-out: CSNK1A1 Assay 2 IC50 [mol/l] (median)
Protocol: CSNK1A1-inhibitory activity of compounds of the present invention in presence of 1 μM adenosine-tri-phosphate (ATP) was quantified employing the CSNK1A1 assay as described in the following paragraphs. In essence, the enzyme activity is measured by quantification of the adenosine-di-phosphate (ADP), which is generated as a co-product of the enzyme reaction, via the “ADP-Glo™ Kinase Assay” kit from the company Promega. This detection system works as follows: In a first step the ATP not consumed in the kinase reaction is quantitatively converted to cAMP employing an adenylate cyclase (“ADP-Glo-reagent”), then the adenylate cyclase is stopped and the ADP generated in the kinase reaction converted to ATP which generates in a luciferase-based reaction a glow-luminescence signal (“Kinase Detection Reagent”). Recombinant fusion protein of N-terminal Glutathion-S-Transferase (GST) and full-length human CSNK1A1, expressed by baculovirus infected insect cells and purified via Glutathion affinity chromatography, was purchased from Life Technologies (product no. PV4174) and used as enzyme. As substrate for the kinase reaction the biotinylated peptide biotin-Ahx-KRRRAL-pS-VASLPGL (C-terminus in amide form) was used which can be purchased e.g. from the company Biosyntan (Berlin-Buch, Germany).
For the assay 50 nl of a 100 fold concentrated solution of the test compound in DMSO was pipetted into a white 1536-well microtiter plate (Greiner Bio-One, Frickenhausen, Germany), 2 μL of a solution of CSNK1A1 in aqueous assay buffer [50 mM HEPES pH 7.5, 10% (v/v) glycerol, 10 mM MgCl2, 50 mM NaCl, 1 mM dithiothreitol, 0.01% (w/v) bovine serum albumin, 0.01% (v/v) Triton X-100] were added and the mixture was incubated for 15 min at 22° C. to allow pre-binding of the test compounds to the enzyme before the start of the kinase reaction. […] The concentration of CSNK1A1 was adjusted depending of the activity of the enzyme lot and was chosen appropriate to have the assay in the linear range, a typical concentrations are about 0.0375 ng/μL. The reaction was stopped by the addition of 2.5 μL of “ADP-Glo-reagent” (1:1.5 fold diluted with water) and the resulting mixture was incubated at 22° C. for 1 h to convert the ATP not consumed in the kinase reaction completely […]. Subsequently 2.5 μL of the “kinase detection reagent” (1.2 fold more concentrated than recommended by the producer) were added, the resulting mixture was incubated at 22° C. for 1 h and then the luminescence measured with a suitable measurement instrument (e.g. Viewlux™ from Perkin-Elmer). The amount of emitted light was taken as a measure for the amount of ADP generated and thereby for the activity of the CSNK1A1.

human CSNK1A1 [2] = target: T1, human CSNK1A1; assay: CSNK1A1 High ATP Assay (ADP-Glo, 1 mM ATP); details: read-out: CSNK1A1 high ATP assay IC50 [mol/l] (median)
Protocol: CSNK1A1-inhibitory activity of compounds of the present invention in presence of 1 mM adenosine-tri-phosphate (ATP) was quantified employing the CSNK1A1-high-ATP-assay as described in the following paragraphs. In essence, the enzyme activity is measured by quantification of the adenosine-di-phosphate (ADP), which is generated as a co-product of the enzyme reaction, via the “ADP-Glo™ Kinase Assay” kit from the company Promega. This detection system works as follows: In a first step the ATP not consumed in the kinase reaction is quantitatively converted to cAMP employing an adenylate cyclase (“ADP-Glo-reagent”), then the adenylate cyclase is stopped and the ADP generated in the kinase reaction converted to ATP which generates in a luciferase-based reaction a glow-luminescence signal (“Kinase Detection Reagent”).
Recombinant fusion protein of N-terminal Glutathion-S-Transferase (GST) and full-length human CSNK1A1, expressed by baculovirus infected insect cells and purified via Glutathion affinity chromatography, was purchased from Life Technologies (product no. PV4174) and used as enzyme. As substrate for the kinase reaction the biotinylated peptide biotin-Ahx-KRRRAL-pS-VASLPGL (C-terminus in amide form) was used which can be purchased e.g. from the company Biosyntan (Berlin-Buch, Germany).
For the assay 50 nl of a 100 fold concentrated solution of the test compound in DMSO was pipetted into a white low volume 384-well microtiter plate (Greiner Bio-One, Frickenhausen, Germany), 2 μL of a solution of CSNK1A1 in aqueous assay buffer [50 mM HEPES pH 7.5, 10% (v/v) glycerol, 10 mM MgCl2, 50 mM NaCl, 1 mM dithiothreitol, 0.01% (w/v) bovine serum albumin, 0.01% (v/v) Triton X-100] were added and the mixture was incubated for 15 min at 22° C. to allow pre-binding of the test compounds to the enzyme before the start of the kinase reaction. […] The concentration of CSNK1A1 was adjusted depending of the activity of the enzyme lot and was chosen appropriate to have the assay in the linear range, a typical concentration is about 0.4 ng/μL. The reaction was stopped by the addition of 2.5 μL of “ADP-Glo-reagent” (1:1.5 fold diluted with water) and the resulting mixture was incubated at 22° C. for 1 h to convert the ATP not consumed in the kinase reaction completely […]. Subsequently 2.5 μL of the “kinase detection reagent” (1.2 fold more concentrated than recommended by the producer) were added, the resulting mixture was incubated at 22° C. for 1 h and then the luminescence measured with a suitable measurement instrument (e.g. Viewlux™ from Perkin-Elmer). The amount of emitted light was taken as a measure for the amount of ADP generated and thereby for the activity of the CSNK1A1.

human CSNK1D = human CSNK1D (Homo sapiens (Human), UniProt P48730); assay: CSNK1D Assay (ADP-Glo, 1 μM ATP); details: read-out: CSNK1D IC50 [mol/l] (median)
Protocol: CSNK1 D-inhibitory activity of compounds of the present invention in presence of 1 μM adenosine-tri-phosphate (ATP) was quantified employing the CSNK1D assay as described in the following paragraphs. In essence, the enzyme activity is measured by quantification of the adenosine-di-phosphate (ADP), which is generated as a co-product of the enzyme reaction, via the “ADP-Glo™ Kinase Assay” kit from the company Promega. This detection system works as follows: In a first step the ATP not consumed in the kinase reaction is quantitatively converted to cAMP employing an adenylate cyclase (“ADP-Glo-reagent”), then the adenylate cyclase is stopped and the ADP generated in the kinase reaction converted to ATP which generates in a luciferase-based reaction a glow-luminescence signal (“Kinase Detection Reagent”). Recombinant fusion protein of N-terminal Glutathion-S-Transferase (GST) and full-length human CSNK1D, expressed by baculovirus infected insect cells and purified via Glutathion affinity chromatography, was purchased from Life Technologies (product no. PV3665) and used as enzyme. As substrate for the kinase reaction the biotinylated peptide Btn-Ahx-[…] (C-terminus in amide form) was used which can be purchased e.g. from the company Biosyntan (Berlin-Buch, Germany).
For the assay 50 nl of a 100 fold concentrated solution of the test compound in DMSO was pipetted into a white 1536-well microtiter plate (Greiner Bio-One, Frickenhausen, Germany), 2 μL of a solution of CSNK1D in aqueous assay buffer [50 mM HEPES pH 7.5, 10% (v/v) glycerol, 10 mM MgCl2, 50 mM NaCl, 1 mM dithiothreitol, 0.01% (w/v) bovine serum albumin, 0.01% (v/v) Triton X-100] were added and the mixture was incubated for 15 min at 22° C. to allow pre-binding of the test compounds to the enzyme before the start of the kinase reaction. […] The concentration of CSNK1 D was adjusted depending of the activity of the enzyme lot and was chosen appropriate to have the assay in the linear range, a typical concentration is about 0.5 ng/μL. The reaction was stopped by the addition of 2.5 μL of “ADP-Glo-reagent” (1:1.5 fold diluted with water) and the resulting mixture was incubated at 22° C. for 1 h to convert the ATP not consumed in the kinase reaction completely […]. Subsequently 2.5 μL of the “kinase detection reagent” (1.2 fold more concentrated than recommended by the producer) were added, the resulting mixture was incubated at 22° C. for 1 h and then the luminescence measured with a suitable measurement instrument (e.g. Viewlux™ from Perkin-Elmer). The amount of emitted light was taken as a measure for the amount of ADP generated and thereby for the activity of the CSNK1D.

[3] = target: wild-type Epidermal Growth Factor Receptor (EGFR) (Homo sapiens (Human), UniProt P00533); assay: WT-EGFR Kinase Assay (TR-FRET, 2 mM ATP)
[4] = EGFR Wildtyp- 2 mM ATP IC50 [mol/l] (median)
[5] = read-out: EGFR Wildtyp- 2 mM ATP IC50 [mol/l] (median)

human CSNK1D, sequence (P48730 whole entry): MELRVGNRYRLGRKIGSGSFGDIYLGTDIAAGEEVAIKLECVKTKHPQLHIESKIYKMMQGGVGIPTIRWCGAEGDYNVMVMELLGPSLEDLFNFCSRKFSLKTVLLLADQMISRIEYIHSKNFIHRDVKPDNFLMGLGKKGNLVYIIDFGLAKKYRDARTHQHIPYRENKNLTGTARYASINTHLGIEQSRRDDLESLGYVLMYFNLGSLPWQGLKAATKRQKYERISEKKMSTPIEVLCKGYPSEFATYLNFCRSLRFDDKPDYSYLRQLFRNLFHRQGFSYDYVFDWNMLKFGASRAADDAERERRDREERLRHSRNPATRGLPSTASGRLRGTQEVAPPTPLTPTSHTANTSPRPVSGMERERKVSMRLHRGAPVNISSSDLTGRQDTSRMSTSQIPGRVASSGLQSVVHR
T1 sequence (P48729 whole entry): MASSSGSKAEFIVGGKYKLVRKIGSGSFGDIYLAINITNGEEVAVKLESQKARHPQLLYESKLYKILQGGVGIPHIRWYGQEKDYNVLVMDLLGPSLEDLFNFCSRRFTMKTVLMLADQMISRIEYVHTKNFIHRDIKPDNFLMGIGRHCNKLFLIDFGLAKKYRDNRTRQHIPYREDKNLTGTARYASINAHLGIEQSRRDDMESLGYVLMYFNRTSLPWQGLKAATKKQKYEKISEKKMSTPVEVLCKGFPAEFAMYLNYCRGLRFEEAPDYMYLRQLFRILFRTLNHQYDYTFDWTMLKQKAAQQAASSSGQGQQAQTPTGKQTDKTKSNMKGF
wild-type Epidermal Growth Factor Receptor (EGFR), sequence (P00533 669-1210): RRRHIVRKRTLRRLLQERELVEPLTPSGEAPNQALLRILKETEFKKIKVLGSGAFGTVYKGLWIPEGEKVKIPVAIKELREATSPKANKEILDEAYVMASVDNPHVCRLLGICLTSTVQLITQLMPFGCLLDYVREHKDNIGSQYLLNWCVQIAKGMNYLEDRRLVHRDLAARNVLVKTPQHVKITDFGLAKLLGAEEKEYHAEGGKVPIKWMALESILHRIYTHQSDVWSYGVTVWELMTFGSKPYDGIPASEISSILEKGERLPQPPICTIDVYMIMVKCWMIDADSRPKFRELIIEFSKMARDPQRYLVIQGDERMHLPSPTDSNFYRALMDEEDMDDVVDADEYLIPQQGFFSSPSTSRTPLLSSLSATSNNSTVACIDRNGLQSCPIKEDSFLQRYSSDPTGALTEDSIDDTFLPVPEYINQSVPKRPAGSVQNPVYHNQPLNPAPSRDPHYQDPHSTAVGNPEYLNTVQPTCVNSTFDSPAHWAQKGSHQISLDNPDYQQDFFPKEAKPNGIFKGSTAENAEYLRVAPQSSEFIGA

Row | SMILES | IC50 (human CSNK1A1 [1]) | IC50 (human CSNK1A1 [2]) | IC50 (human CSNK1D) [nM] | IC50 [3, 4] [nM] | IC50 [3, 5] [nM]
1 | O=C1NC2(CCC2)Cc2[nH]c(-c3ccnc(NC(=O)C(CC(F)F)c4ccc(F)cc4)c3)c(Nc3ccccc3)c21 (single isomer, unassigned; (-)) [Example 56, (−)-N-[4-(3′-anilino-4′-oxo-1′,4′,5′,7′-tetrahydrospiro[cyclobutane-1,6′-pyrrolo[3,2-c]pyridin]-2′-yl)pyridin-2-yl]-4,4-difluoro-2-(4-fluorophenyl)butanamide] | 19.2 nM | 1080 nM | 27.9 | 857 | 
2 | CC(C(=O)Nc1cc(-c2[nH]c3c(c2Nc2ccccc2)C(=O)N(C)C(C)C3)ccn1)c1ccc(F)cc1 (single isomer, unassigned; (+)) [Example 91, (+)-(2RS)—N-{4-[(6R*)-3-anilino-5,6-dimethyl-4-oxo-4,5,6,7-tetrahydro-1H-pyrrolo[3,2-c]pyridin-2-yl]pyridin-2-yl}-2-(4-fluorophenyl)propanamide] | 4.73 nM | 693 nM | 8.83 | > 20000 | 
3 | CN1CCc2[nH]c(-c3ccnc(NC(=O)C(CC(F)F)c4ccccc4)c3)c(Nc3ccccc3)c2C1=O (centres unmarked) [Example 33, N-[4-(3-anilino-5-methyl-4-oxo-4,5,6,7-tetrahydro-1H-pyrrolo[3,2-c]pyridin-2-yl)pyridin-2-yl]-4,4-difluoro-2-phenylbutanamide] | 6.15 nM | 72.2 nM | 18.1 |  | > 20000
4 | O=C1NC2(CC2)Cc2[nH]c(-c3ccnc(NC(=O)C(CC(F)F)c4ccc(F)cc4)c3)c(Nc3ccccc3)c21 (single isomer, unassigned; enantiomer 1) [Example 148, N-[4-(3′-anilino-4′-oxo-1′,4′,5′,7′-tetrahydrospiro[cyclopropane-1,6′-pyrrolo[3,2-c]pyridin]-2′-yl)pyridin-2-yl]-4,4-difluoro-2-(4-fluorophenyl)butanamide (Enantiomer 1)] | 8.82 nM | 12.8 nM | 8.31 | 3400 | 
5 | O=C(Cc1ccc(F)cc1)Nc1cc(-c2[nH]c3c(c2Nc2ccccc2)C(=O)N(C2CC2)CC3)ccn1 [Example 7, N-[4-(3-anilino-5-cyclopropyl-4-oxo-4,5,6,7-tetrahydro-1H-pyrrolo[3,2-c]pyridin-2-yl)pyridin-2-yl]-2-(4-fluorophenyl)acetamide] | 2.52 nM | 107 nM | 8.48 |  | 2740
6 | CN1C(=O)c2c([nH]c(-c3ccnc(NC(=O)C(CC(F)F)c4ccc(F)cc4)c3)c2Nc2ccccc2F)CC1(C)C (single isomer, unassigned) [Example 47, 4,4-difluoro-N-{4-[3-(2-fluoroanilino)-5,6,6-trimethyl-4-oxo-4,5,6,7-tetrahydro-1H-pyrrolo[3,2-c]pyridin-2-yl]pyridin-2-yl}-2-(4-fluorophenyl)butanamide] | 163 nM | > 20000 nM | 151 |  | > 20000
7 | CC(C(=O)Nc1cc(-c2[nH]c3c(c2Nc2ccccc2)C(=O)N(C)C2(CCC2)C3)ccn1)c1ccc(F)cc1 (single isomer, unassigned; enantiomer 1) [Example 158, (−)-N-[4-(3′-anilino-5′-methyl-4′-oxo-1′,4′,5′,7′-tetrahydrospiro[cyclobutane-1,6′-pyrrolo[3,2-c]pyridin]-2′-yl)pyridin-2-yl]-2-(4-fluorophenyl)propanamide (Enantiomer 1)] | 239 nM and 263 nM and 52.5 nM and 67.7 nM | > 1630 nM and 5570 nM | 188 | > 20000 | 
8 | CC1(C)Cc2[nH]c(-c3ccnc(NC(=O)C(CC(F)F)c4ccc(F)cc4)c3)c(Nc3cccc(F)c3Cl)c2C(=O)N1 (racemic) [Example 109, N-{4-[3-(2-chloro-3-fluoroanilino)-6,6-dimethyl-4-oxo-4,5,6,7-tetrahydro-1H-pyrrolo[3,2-c]pyridin-2-yl]pyridin-2-yl}-4,4-difluoro-2-(4-fluorophenyl)butanamide] | 16.4 nM | 136 nM | 14.1 | > 20000 | 
